In PubChem BioAssay AID200 (DTP/NCI, 2004):
Values joined by “and” are separate entries in the source; they are usually repeats but may differ in a detail not shown here. Equal entries are not always repeated. Inconclusive results and toxic doses are left out. *1 amine or outer side, *2 acyl side, *3 side chain or, on linkers, in order; H or OH if unused. Where a SMILES comes first, the peptide text is derived from it. Bridges are numbered along the chain shown (N, C = ends). Roman numbers before positions name the chains, in order. [ ]: non-standard residue; d: D form. The star is where a group is joined. ξ: configuration not given here. Quinaldoyl(3-OH,6-OMe) = COc1ccc2nc(C(=O)*)c(O)cc2c1; X6 = CCC(=O)OC1CC=NN([*:1])C1C(=O)[*:2]; X7 = CC(=O)OC1CC=NN([*:1])C1C(=O)[*:2]; ξNMeVal(3-OH) = CNC(C(=O)O)C(C)(C)O; Sar = CNCC(=O)O

Test system: B6C3F1 mice, B16 melanoma ip, median survival T/C
Experiment: NCI In Vivo Anticancer Drug Screen. Data for tumor model B16 Melanoma (intraperitoneal) in B6C3F1 mice
Details: endpoint: median survival time, higher = longer survival
In short: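 Readout: survival or tumor size in treated mice relative to vehicle controls (T/C). Model uses transplantable tumors grown in mice.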

[1] = dose: 50.0 mg/kg/injection, schedule: Q01DX009 (ip), vehicle: saline with Tween-80
[2] = dose: 100.0 mg/kg/injection, schedule: Q01DX009 (ip), vehicle: Klucel (hydroxypropylcellulose) (HPC)
[3] = dose: 200.0 mg/kg/injection, schedule: Q01DX009 (ip), vehicle: Klucel (hydroxypropylcellulose) (HPC)
[4] = dose: 400.0 mg/kg/injection, schedule: Q01DX009 (ip), vehicle: Klucel (hydroxypropylcellulose) (HPC)
[5] = dose: 0.78 mg/kg/injection, schedule: Q01DX009 (ip), vehicle: Klucel (hydroxypropylcellulose) (HPC)
[6] = dose: 1.56 mg/kg/injection, schedule: Q01DX009 (ip), vehicle: Klucel (hydroxypropylcellulose) (HPC)
[7] = dose: 3.12 mg/kg/injection, schedule: Q01DX009 (ip), vehicle: Klucel (hydroxypropylcellulose) (HPC)
[8] = dose: 6.25 mg/kg/injection, schedule: Q01DX009 (ip), vehicle: Klucel (hydroxypropylcellulose) (HPC)
[9] = dose: 12.5 mg/kg/injection, schedule: Q01DX009 (ip), vehicle: Klucel (hydroxypropylcellulose) (HPC)
[10] = dose: 100.0 mg/kg/injection, schedule: Q01DX009 (ip), vehicle: saline with Tween-80
[11] = dose: 200.0 mg/kg/injection, schedule: Q01DX009 (ip), vehicle: saline with Tween-80
[12] = dose: 25.0 mg/kg/injection, schedule: Q01DX009 (ip), vehicle: water
[13] = dose: 50.0 mg/kg/injection, schedule: Q01DX009 (ip), vehicle: water
[14] = dose: 100.0 mg/kg/injection, schedule: Q01DX009 (ip), vehicle: water
[15] = dose: 200.0 mg/kg/injection, schedule: Q01DX009 (ip), vehicle: water

For CCOC(=O)Nc1cc2c(c(N)n1)N=C(c1ccc3ccccc3c1)CN2, the T/C (dose: 0.5 mg/kg/injection, schedule: Q01DX009 (ip), vehicle: saline with Tween-80) was 97 % of control, the T/C (dose: 1.0 mg/kg/injection, schedule: Q01DX009 (ip), vehicle: saline with Tween-80) was 110 % of control and the T/C (dose: 1.44 mg/kg/injection, schedule: Q01DX009 (ip), vehicle: saline with Tween-80) was 101 % of control. The T/C (dose: 2.0 mg/kg/injection, schedule: Q01DX009 (ip), vehicle: saline with Tween-80) was 113 % of control and 116 % of control, the T/C (dose: 2.4 mg/kg/injection, schedule: Q01DX009 (ip), vehicle: saline with Tween-80) was 106 % of control and the T/C (dose: 4.0 mg/kg/injection, schedule: Q01DX009 (ip), vehicle: saline with Tween-80) was 109 % of control and 122 % of control and 107 % of control. The T/C (dose: 6.67 mg/kg/injection, schedule: Q01DX009 (ip), vehicle: saline with Tween-80) was 113 % of control, the T/C (dose: 8.0 mg/kg/injection, schedule: Q01DX009 (ip), vehicle: saline with Tween-80) was 119 % of control and the T/C (dose: 11.12 mg/kg/injection, schedule: Q01DX009 (ip), vehicle: saline with Tween-80) was 119 % of control.
With Nc1nc(Cc2ccccc2)c(CCCNc2ccccc2)c(=O)[nH]1 the T/C (dose: 6.25 mg/kg/injection, schedule: Q01DX009 (ip), vehicle: saline with Tween-80) was 101 % of control, the T/C (dose: 12.5 mg/kg/injection, schedule: Q01DX009 (ip), vehicle: saline with Tween-80) was 109 % of control and the T/C (dose: 25.0 mg/kg/injection, schedule: Q01DX009 (ip), vehicle: saline with Tween-80) was 92 % of control. The T/C [1] was 86 % of control.
In the case of CC(C)(OC(=O)NC(CC(N)=O)C(=O)O)c1ccc(-c2ccccc2)cc1 (centres undefined), the T/C [2] is reported as 97 % of control, the T/C [3] is reported as 91 % of control and the T/C [4] is reported as 89 % of control.
O=c1c(O)c(-c2ccc(O)c(O)c2)oc2cc(O)cc(O)c12 was tested, and the T/C (dose: 12.5 mg/kg/injection, schedule: Q01DX009 (ip), vehicle: suspension in saline) was 103 % of control, the T/C (dose: 25.0 mg/kg/injection, schedule: Q01DX009 (ip), vehicle: suspension in saline) was 107 % of control and the T/C (dose: 50.0 mg/kg/injection, schedule: Q01DX009 (ip), vehicle: suspension in saline) was 102 % of control. For the same molecule, the T/C (dose: 100.0 mg/kg/injection, schedule: Q01DX009 (ip), vehicle: suspension in saline) was 109 % of control.
For CCC(=O)OC1CC=NN2C(=O)C(NC(=O)c3nc4ccc(OC)cc4cc3O)COC(=O)C(C(C)(C)O)N(C)C(=O)CN(C)C(=O)CNC(=O)C3C(OC(C)=O)CC=NN3C(=O)C(NC(=O)c3nc4ccc(OC)cc4cc3O)COC(=O)C(C(C)(C)O)N(C)C(=O)CN(C)C(=O)CNC(=O)C12 (centres undefined) (I: {Quinaldoyl(3-OH,6-OMe)}-S[X6]G[Sar][ξNMeVal(3-OH)] / II: {Quinaldoyl(3-OH,6-OMe)}-S[X7]G[Sar][ξNMeVal(3-OH)]; ester I:1-II:C, I:C-II:1; configuration not given here), the T/C (dose: 4.0 micrograms/kg/injection, schedule: Q01DX009 (ip), vehicle: saline) was 98 % of control, the T/C (dose: 8.0 micrograms/kg/injection, schedule: Q01DX009 (ip), vehicle: saline) was 105 % of control and the T/C (dose: 16.0 micrograms/kg/injection, schedule: Q01DX009 (ip), vehicle: saline) was 111 % of control.
With COc1ccc2c(c1O)-c1cccc3c1[C@@H](C2)N(CCCl)CC3 the T/C (dose: 1.0 mg/kg/injection, schedule: Q01DX009 (ip), vehicle: Klucel (hydroxypropylcellulose) (HPC)) was 91 % of control and 100 % of control, the T/C (dose: 2.0 mg/kg/injection, schedule: Q01DX009 (ip), vehicle: Klucel (hydroxypropylcellulose) (HPC)) was 100 % of control and the T/C (dose: 4.0 mg/kg/injection, schedule: Q01DX009 (ip), vehicle: Klucel (hydroxypropylcellulose) (HPC)) was 97 % of control and 106 % of control. For the same molecule, the T/C (dose: 8.0 mg/kg/injection, schedule: Q01DX009 (ip), vehicle: Klucel (hydroxypropylcellulose) (HPC)) was 98 % of control and 102 % of control.
In the case of COc1c(C=O)c2c(c(OC)c1OC)-c1ccc(OC)c(=O)cc1[C@@H](NC(C)=O)CC2, the T/C [5] is reported as 116 % of control, the T/C [6] is reported as 111 % of control and 121 % of control and 124 % of control and the T/C [7] is reported as 123 % of control and 107 % of control. The T/C [8] was 116 % of control, the T/C [9] was 120 % of control and the T/C (dose: 12.6 mg/kg/injection, schedule: Q01DX009 (ip), vehicle: Klucel (hydroxypropylcellulose) (HPC)) was 114 % of control.
With Cc1ccc(C(=O)OC(C(=O)O)C(OC(=O)c2ccc(C)cc2)C(=O)O)cc1 (centres undefined) (tested in a mixture with another compound) the T/C (dose: 6.25 mg/kg/injection, schedule: Q01DX009 (ip), vehicle: other) was 93 % of control, the T/C (dose: 12.5 mg/kg/injection, schedule: Q01DX009 (ip), vehicle: other) was 91 % of control and the T/C (dose: 25.0 mg/kg/injection, schedule: Q01DX009 (ip), vehicle: other) was 111 % of control.
With CC(NC(=O)OCC1c2ccccc2-c2ccccc21)C(=O)O (centres undefined) the T/C [2] was 104 % of control, the T/C [3] was 101 % of control and the T/C [4] was 87 % of control.
In the case of OC(c1ccccc1)C(O)C(c1ccccc1)N1CCCCC1 (centres undefined), the T/C [10] is reported as 100 % of control, the T/C [11] is reported as 102 % of control and the T/C (dose: 400.0 mg/kg/injection, schedule: Q01DX009 (ip), vehicle: saline with Tween-80) is reported as 111 % of control.
For CC(C)[C@](O)(C(=O)OCC1=CCN2CC[C@@H](O)[C@@H]12)[C@H](C)O, the T/C [12] was 107 % of control, the T/C [13] was 111 % of control and 116 % of control and the T/C [14] was 111 % of control. The T/C [15] was 117 % of control.
With O=NN(CCF)C(=O)NC1CCCCC1 the T/C [7] was 116 % of control, the T/C [8] was 166 % of control and the T/C (dose: 12.0 mg/kg/injection, schedule: Q01DX001 (ip), vehicle: Klucel (hydroxypropylcellulose) (HPC)) was 121 % of control. The T/C [9] was 333 % of control, the T/C (dose: 25.0 mg/kg/injection, schedule: Q01DX001 (ip), vehicle: Klucel (hydroxypropylcellulose) (HPC)) was 162 % of control and the T/C (dose: 100.0 mg/kg/injection, schedule: Q01DX001 (ip), vehicle: Klucel (hydroxypropylcellulose) (HPC)) was 216 % of control.
CCCNC1=C(C)C(=O)C2=C(C1=O)[C@H](COC(N)=O)[C@]1(OC)[C@@H]3N[C@@H]3CN21 was tested, and the T/C (dose: 0.39 mg/kg/injection, schedule: Q01DX009 (ip), vehicle: Klucel (hydroxypropylcellulose) (HPC)) was 104 % of control, the T/C (dose: 0.39 mg/kg/injection, schedule: Q01DX009 (ip), vehicle: saline) was 115 % of control and the T/C [5] was 105 % of control. The T/C [6] was 105 % of control, the T/C (dose: 1.56 mg/kg/injection, schedule: Q01DX009 (ip), vehicle: saline) was 155 % of control and the T/C [7] was 96 % of control. The T/C (dose: 3.12 mg/kg/injection, schedule: Q01DX009 (ip), vehicle: saline) was 173 % of control and the T/C [8] was 111 % of control.
O=S(=O)(O)O was tested, and the T/C (dose: 30.0 mg/kg/injection, schedule: Q01DX009 (ip), vehicle: water) was 121 % of control and 91 % of control, the T/C (dose: 44.0 mg/kg/injection, schedule: Q01DX009 (ip), vehicle: water) was 108 % of control and 99 % of control and the T/C (dose: 67.0 mg/kg/injection, schedule: Q01DX009 (ip), vehicle: water) was 95 % of control and 102 % of control. The T/C [14] was 97 % of control and 103 % of control.
With C/C=C1/C(=O)O[C@]23C=C[C@@H]4C(C(=O)OC)=CO[C@H](O[C@@H]12)[C@@H]43 the T/C (dose: 3.75 mg/kg/injection, schedule: Q01DX009 (ip), vehicle: Klucel (hydroxypropylcellulose) (HPC)) was 102 % of control, the T/C (dose: 7.5 mg/kg/injection, schedule: Q01DX009 (ip), vehicle: Klucel (hydroxypropylcellulose) (HPC)) was 91 % of control and the T/C (dose: 15.0 mg/kg/injection, schedule: Q01DX009 (ip), vehicle: Klucel (hydroxypropylcellulose) (HPC)) was 98 % of control.
c1nc(N2CC2)c2cnn(C3CCCCO3)c2n1 (centres undefined) was tested, and the T/C [1] was 91 % of control, the T/C [10] was 93 % of control and the T/C [11] was 91 % of control.
For C/C=C/C=C/c1cc2cc3c(c(O)c2c(=O)[nH]1)C1(CC3)C(O)=c2c(=O)c3c(=O)cc(OC)c(=O)c=3c(=O)c2=C1O (centres undefined), the T/C (dose: 0.75 mg/kg/injection, schedule: Q01DX009 (ip), vehicle: Klucel (hydroxypropylcellulose) (HPC)) was 114 % of control and 117 % of control, the T/C (dose: 1.5 mg/kg/injection, schedule: Q01DX009 (ip), vehicle: Klucel (hydroxypropylcellulose) (HPC)) was 114 % of control and 107 % of control and the T/C (dose: 3.0 mg/kg/injection, schedule: Q01DX009 (ip), vehicle: Klucel (hydroxypropylcellulose) (HPC)) was 116 % of control. For the same molecule, the T/C (dose: 6.0 mg/kg/injection, schedule: Q01DX009 (ip), vehicle: Klucel (hydroxypropylcellulose) (HPC)) was 115 % of control and the T/C (dose: 12.0 mg/kg/injection, schedule: Q01DX009 (ip), vehicle: Klucel (hydroxypropylcellulose) (HPC)) was 115 % of control.
With O=C(NO)c1cc(O)c(O)c(O)c1 the T/C [12] was 100 % of control, the T/C [13] was 105 % of control and the T/C [14] was 114 % of control. For the same molecule, the T/C [15] was 118 % of control.
